The structures appear in SMILES notation.

For data set [1] the following is noted: measured by a laser granulometer. As for the experimental part:
Step 3: 0.2 g of donepezil semi pamoate seed crystals (the preparation method refers to example 4 of patent WO2013078608) were added into the filtrate obtained in step 1 to obtain a solution. Then the filtrate obtained in step 2 was slowly and dropwise added into the above solution at room temperature over 1 hour, slowly stirred for 5-10 hours with an anchor stir bar and filtered.
Step 1 and step 2 are the same as those of powder 1 #. Step 3: 0.2 g of donepezil semi pamoate seed crystals (the preparation method is the same as above) were added into the filtrate obtained in step 1 to obtain a solution. Then the filtrate obtained in step 2 was slowly and dropwise added into the above solution at 4-10° C. over 1 hour, stirred for 1-2 hours at room temperature and filtered.
Step 1 and step 2 are the same as those of powder 1 #. Step 3: 0.2 g of donepezil semi pamoate seed crystals (the preparation method refers to patent WO2013078608) were added into the filtrate obtained in step 1 to obtain a solution. Then the obtained solution was heated to 50-60° C. The filtrate obtained in step 2 was slowly and dropwise added into the above solution. After completion of the addition, the reaction solution was cooled to room temperature, stirred for 1-2 hours, and filtered.

For data set [2] the following is noted: for Appearance observed: dry powder; for Angle of repose: funnel method, arctg (H/r); for fluidity: judged from angle of repose. As for the experimental part:
The angle of repose is a common index for evaluating the fluidity of dry powder. When measuring the angle of repose, the funnel is fixed at a suitable height H. The dry powder prepared in Example 1 was placed in a funnel and naturally leaked to form a pile until tip of the cone almost contacts the outlet of the funnel. Then, the radius r of the bottom surface of the cone was measured, and the angle of repose is arctg (H/r).

For data set [3] the following is noted: 160° C. for 2 hours. As for the experimental part:
The powder 3 # prepared in Example 1 was placed at 160° C. for 2 hours, and the changes in appearance and weight loss thereof were recorded.

Take `COc1cc2c(cc1OC)C(=O)C(CC1CCN(Cc3ccccc3)CC1)C2.COc1cc2c(cc1OC)C(=O)C(CC1CCN(Cc3ccccc3)CC1)C2.O=C(O)c1cc2ccccc2c(Cc2c(O)c(C(=O)O)cc3ccccc23)c1O` [Powder 1#, donepezil semi pamoate]: the average particle size D50 in data set [1] amounted to 90 ± 17 µm. In data set [2], the Appearance observed entry was “Homogeneous solid particles”, the Angle of repose stood at 28 ± 4 ° and the fluidity entry is given as “certain fluidity”.

Turning to `COc1cc2c(cc1OC)C(=O)C(CC1CCN(Cc3ccccc3)CC1)C2.COc1cc2c(cc1OC)C(=O)C(CC1CCN(Cc3ccccc3)CC1)C2.O=C(O)c1cc2ccccc2c(Cc2c(O)c(C(=O)O)cc3ccccc23)c1O` [Powder 3#, donepezil semi pamoate], the average particle size D50 in data set [1] is 13 ± 2 µm. Also, in data set [3], the changes in appearance entry was “gradually changed from light yellow to bright brown, and finally coagulated and melted”; the weight loss entry is “about 5.14%”. Besides, in data set [2], the Appearance observed result was “Homogeneous solid particles”, the Angle of repose is listed as 42 ± 1 ° and the fluidity entry is given as “certain fluidity”.

In data set [1], `COc1cc2c(cc1OC)C(=O)C(CC1CCN(Cc3ccccc3)CC1)C2.COc1cc2c(cc1OC)C(=O)C(CC1CCN(Cc3ccccc3)CC1)C2.O=C(O)c1cc2ccccc2c(Cc2c(O)c(C(=O)O)cc3ccccc23)c1O` [Powder 2#, donepezil semi pamoate] registered an average particle size D50 of 42 ± 10 µm. Besides, in data set [2], the Appearance observed entry is given as “Homogeneous solid particles”, the Angle of repose stood at 35 ± 3 ° and the fluidity entry is listed as “certain fluidity”.

`COc1cc2c(cc1OC)C(=O)C(CC1CCN(Cc3ccccc3)CC1)C2.COc1cc2c(cc1OC)C(=O)C(CC1CCN(Cc3ccccc3)CC1)C2.O=C(O)c1cc2ccccc2c(Cc2c(O)c(C(=O)O)cc3ccccc23)c1O` [Powder 5#, donepezil semi pamoate] registered an average particle size D50 in data set [1] of 0.9 ± 0.4 µm. For the same compound, in data set [2], the Appearance observed result is given as “Obvious static electricity,”, the Angle of repose turned out to be 50 ± 4 ° and the fluidity result is “poor fluidity”.

For `COc1cc2c(cc1OC)C(=O)C(CC1CCN(Cc3ccccc3)CC1)C2.COc1cc2c(cc1OC)C(=O)C(CC1CCN(Cc3ccccc3)CC1)C2.O=C(O)c1cc2ccccc2c(Cc2c(O)c(C(=O)O)cc3ccccc23)c1O` [Powder 4#, donepezil semi pamoate], in data set [1], the average particle size D50 came to 3 ± 1 µm. For the same compound, in data set [2], the Appearance observed result is “Homogeneous solid particles”, the Angle of repose is 38 ± 3 ° and the fluidity result was “certain fluidity”.

Source of the values: patent US11801239B2, “Powder injection of the donepezil semi palmoxiric acid salt, composition containing same and preparation method therefor” (priority 2017, dated 2023).
